In brackets after ≈: the same amount, converted by molar mass.
molecular target: not listed separately; test: Inhibition of Hydrogen potassium ATPase (unknown origin); set-up: species or system Homo sapiens; details: not given

SMILES	IC50 [µg/mL]
COc1ccc2[nH]c([S+]([O-])Cc3ncc(C)c(OC)c3C)nc2c1 (stereo unspecified) [OMEPRAZOLE]	37.91
Cc1ccc(-c2csc(NC(=O)/C=C/c3ccc(O)c(O)c3)n2)cc1	35.35

same assay, conditions: read-out: IC50

SMILES	IC50 [µM]
Cc1ccccc1-c1nc2c(C(=O)NCc3cccc(CN)c3)cccn2c1NCc1ccccc1	6.2
CCc1ccc(-c2nc3c(C(=O)NCc4cccc(CN)c4)cccn3c2NCc2ccccc2)cc1	6
Brc1ccc(C2CC(c3ccco3)=Nc3ccccc3S2)cc1 (stereo unspecified)	2.1
COc1ccc(C2CC(c3ccco3)=Nc3ccccc3S2)cc1 (stereo unspecified)	2

test system: Mus musculus; test: Anti-inflammatory activity against carrageenan-induced hind paw edema Swiss albino mouse model assessed as reduction in paw thickness at 10 mg/kg, po relative to control; type: functional; set-up: scale not given: the % may be the effect or the level left; details: not given

SMILES	Activity [%]
CCOC(=O)/C(=N/Nc1ccccc1)Sc1nnc(-c2c([C@H]3CC[C@H]4[C@@H]5CC=C6C[C@H](O)CC[C@]6(C)[C@H]5CC[C@]34C)csc2N)n1-c1ccccc1	0.96
CCOC1=C(Sc2nnc(-c3c([C@H]4CC[C@H]5[C@@H]6CC=C7C[C@H](O)CC[C@]7(C)[C@H]6CC[C@]45C)csc3N)n2-c2ccccc2)C(c2ccccc2)C(C#N)=C(N)N1 (stereo partly specified)	0.18
CC(=O)/C(=N/Nc1ccccc1)Sc1nnc(-c2c([C@H]3CC[C@H]4[C@@H]5CC=C6C[C@H](O)CC[C@]6(C)[C@H]5CC[C@]34C)csc2N)n1-c1ccccc1	1.77

test system: Helicobacter pylori; test: Antibacterial activity against Helicobacter pylori ATCC 43504 assessed as reduction in bacterial growth incubated for 24 hrs by broth micro-dilution method; type: functional; details: not given

SMILES	MIC [µg/mL]
C=CCSCC=C [DIALLYL SULFIDE]	100 (≈ 876 µM)

test system: Rattus norvegicus; test: Gastric ulcerogenic activity in Wistar rat assessed as reduction in gastric inflammation at 0.02 mg/kg, po relative to control; type: functional; set-up: scale not given: the % may be the effect or the level left; details: not given

SMILES	Activity [%]
O=C1NC(=O)C(=C(/C=C/c2ccccc2)c2nc3ccccc3[nH]2)C(=O)N1	63.04
COc1ccc(/C=C/C(=C2C(=O)NC(=O)NC2=O)c2nc3ccccc3[nH]2)cc1	67.17
COc1ccc2[nH]c([S+]([O-])Cc3nc(Cl)c4c(-c5ccccc5)csc4n3)nc2c1 (stereo unspecified)	70.2
COc1ccc2[nH]c([S+]([O-])Cc3nc(Cl)c4c(-c5ccc(Cl)cc5)csc4n3)nc2c1 (stereo unspecified)	72.6
COc1nc(C[S+]([O-])c2nc3ccccc3[nH]2)nc2scc(-c3ccccc3)c12 (stereo unspecified)	64.6
CN(C)c1ccc(/C=C/C(=C2C(=O)NC(=O)NC2=O)c2nc3ccccc3[nH]2)cc1	69.56
O=C1NC(=O)C(=C(/C=C/c2ccc(Cl)cc2)c2nc3ccccc3[nH]2)C(=O)N1	69.56

test system: Helicobacter pylori; test: Antibacterial activity against Helicobacter pylori ATCC 43504 assessed as minimum bactericidal concentration incubated for 24 hrs by broth micro-dilution method; type: functional; details: not given

SMILES	MBC [µg/mL]
Cc1c(CSc2nc3ccccc3[nH]2)cccc1SCCN1CCOCC1	1 (≈ 2.5 µM)
COCCOCCOCCOCCOCCSc1cccc(CSc2nc3ccccc3[nH]2)c1C	0.5 (≈ 0.96 µM)
Cc1c(CSc2nc3ccccc3[nH]2)cccc1SCCn1c([N+](=O)[O-])cnc1C	2 (≈ 4.55 µM)
Cc1c(CSc2nc3ccccc3[nH]2)cccc1SCCn1cncn1	4 (≈ 10.5 µM)
COCCOCCOCCSc1cccc(CSc2nc3ccccc3[nH]2)c1C	0.5 (≈ 1.16 µM)

molecular target: T1, Gastrin/cholecystokinin type B receptor (Homo sapiens, UniProt P32239); test: Antagonist activity at human CCKBR; type: functional; details: not given
T1 sequence (P32239 whole entry): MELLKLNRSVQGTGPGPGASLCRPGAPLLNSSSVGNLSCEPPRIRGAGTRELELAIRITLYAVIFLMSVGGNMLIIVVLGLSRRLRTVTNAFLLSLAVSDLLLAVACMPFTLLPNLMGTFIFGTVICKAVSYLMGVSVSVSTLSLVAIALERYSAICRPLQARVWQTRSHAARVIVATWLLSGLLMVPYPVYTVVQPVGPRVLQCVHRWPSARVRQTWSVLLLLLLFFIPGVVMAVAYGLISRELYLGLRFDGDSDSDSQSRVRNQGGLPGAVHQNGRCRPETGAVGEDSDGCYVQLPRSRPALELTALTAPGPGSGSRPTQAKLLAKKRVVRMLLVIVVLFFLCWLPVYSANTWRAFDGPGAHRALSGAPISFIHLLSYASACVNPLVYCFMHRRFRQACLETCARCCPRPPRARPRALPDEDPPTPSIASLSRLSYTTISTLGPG

SMILES	IC50 [µM]
CCCc1ccc([C@@H]2N[C@H](C(=O)OC)CC3c4ccccc4NC32)cc1 (stereo partly specified)	140
COC(=O)[C@H]1Cc2c([nH]c3ccccc23)[C@H](c2ccc(C)cc2)N1	64.6

test system: Mus musculus; test: Anti-ulcerogenic activity in ethanol-induced gastric ulcer mouse model assessed as reduction in ulcer formation at 250 mg/kg; type: functional; details: not given

SMILES	Activity_index
CCOC(=O)CN1CCN(S(=O)(=O)c2cc(C)c3cc(C(C)C)ccc(C)c2-3)CC1	1.875
COc1ccc(C2C(C#N)=C(O)OC(Nc3nc4c(s3)C[C@H]3[C@@H]5CCC6=CC(=O)CC[C@]6(C)[C@H]5CC[C@]43C)=C2C#N)cc1 (stereo partly specified)	2.48
Cc1cc(S(=O)(=O)N2CCN(S(C)(=O)=O)CC2)c2c(C)ccc(C(C)C)cc1-2	1.714
C[C@]12CCC(=O)C=C1CC[C@@H]1[C@@H]2CC[C@]2(C)c3nc(NC4=C(C#N)C(c5ccc(Cl)cc5)C(C#N)=C(N)O4)sc3C[C@@H]12 (stereo partly specified)	2.48
Cc1cc(S(=O)(=O)N2CCN(S(=O)(=O)c3ccccc3)CC2)c2c(C)ccc(C(C)C)cc1-2	1.12

species: Rattus norvegicus; test: Anti-ulcer activity in stress-induced Sprague-Dawley rat […] model assessed as reduction in ulcer fomation; type: functional; set-up: Activity: concentration or dose not given beside the values; details: not given

SMILES	Activity [%]
CC(C)Cc1ccc(C(C)C(=O)O)cc1 (stereo unspecified) [IBUPROFEN]	35
CCCc1cc([S+]([O-])c2nc3cc([N+](=O)[O-])ccc3[nH]2)nc(C)n1 (stereo unspecified)	75.15
CC(C)Cc1ccc(C(C)C(=O)NS(=O)(=O)c2ccc(N)cc2)cc1 (stereo unspecified)	8
CCCc1cc([S+]([O-])c2nc3cc(C)ccc3[nH]2)nc(C)n1 (stereo unspecified)	72.87
COC1Oc2ccccc2-c2sc(C=O)cc21 (stereo unspecified)	7.3
CCCc1cc([S+]([O-])c2nc3ccccc3[nH]2)nc(C)n1 (stereo unspecified)	74.03

same assay, conditions: Rattus norvegicus, Sprague-Dawley

SMILES	ED50 [mg/kg]
Cc1c(OCC(F)(F)F)ccnc1C[S+]([O-])c1nc2ccccc2[nH]1 (stereo unspecified) [LANSOPRAZOLE]	2.4
Cc1c(OCC(F)(F)C(F)(F)F)ccnc1C[S+]([O-])c1nc2ccccc2[nH]1 (stereo unspecified)	5.1
Cc1c(OCC(F)(F)C(F)F)ccnc1C[S+]([O-])c1nc2ccccc2[nH]1 (stereo unspecified)	1.2
[O-][S+](Cc1cc(OCC(F)(F)F)ccn1)c1nc2ccccc2[nH]1 (stereo unspecified)	2

test system: not listed separately; test: Inhibition of urease (unknown origin); set-up: species or system Homo sapiens; details: not given

SMILES	IC50 [µM]
COc1ccc(C(=O)N/N=C/c2cc(O)c(O)c(O)c2)cc1OC	12.6
CC(C)=CCOc1c2ccoc2cc2oc(=O)ccc12 [ISOIMPERATORIN]	36.4
COc1ccc(C(=O)N/N=C/c2cc(O)cc(O)c2)cc1OC	8.4
COc1ccc(C(=O)N/N=C/c2ccc(O)c(O)c2)cc1OC	18.2
COC(=O)c1ccc(/C=N/NC(=O)Cc2c[nH]c3ccccc23)cc1	3.9
COc1ccc(C(=O)N/N=C/c2cc(O)ccc2O)cc1OC	19.2

test system: not listed separately; test: Cmax in C57BL/6 mouse administered via oral gavage by LC-MS/MS analysis; type: ADME; details: in vivo

SMILES	Cmax [ng/mL]
Cc1c(CSc2nc3ccccc3[nH]2)cccc1SCCOC(=O)Nc1ccccc1	900

test system: Rattus norvegicus; test: Gastric ulcerogenic activity in Albino wistar rat assessed as reduction in pyloric lesion at 250 mg/kg, po relative to control; type: functional; set-up: scale not given: the % may be the effect or the level left; details: not given

SMILES	Activity [%]
O=c1oc2ccccc2cc1-c1nc2c(s1)sc1nc(=S)n(-c3ccccc3)c(O)c12	78
N#Cc1c(O)nc2sc3sc(-c4cc5ccccc5oc4=O)nc3c2c1O	70
N#Cc1c(NC(=O)c2c(-c3ccccc3)cnn(-c3ccc(Cl)cc3)c2=N)sc2sc(-c3cc4ccccc4oc3=O)nc12	94
COc1ccc(-n2ncc(-c3ccccc3)c(C(=O)Nc3sc4sc(-c5cc6ccccc6oc5=O)nc4c3C#N)c2=N)cc1	93
CCOC(=O)/C(C(=O)Nc1sc2sc(-c3cc4ccccc4oc3=O)nc2c1C#N)=C(/C)c1ccccc1	48
N#CC1=C(N)Nc2nc(-c3cc4ccccc4oc3=O)sc2C1c1ccccc1 (stereo unspecified)	82
N#C/C(C(=O)Nc1sc2sc(-c3cc4ccccc4oc3=O)nc2c1C#N)=C(\C=N\Nc1ccccc1)c1ccccc1	66
N#Cc1c(N)sc2sc(-c3cc4ccccc4oc3=O)nc12	64

test system: Helicobacter pylori; test: Antibacterial activity against Helicobacter pylori assessed as reduction in bacterial growth incubated for 24 hrs by broth micro-dilution method; type: functional; details: not given

SMILES	MIC [µg/mL]
COc1cc2ccc(=O)oc2cc1O [SCOPOLETIN]	50 (≈ 260 µM)
COc1ccc2cc3[n+](cc2c1OC)CCc1cc2c(cc1-3)OCO2 [BERBERINE]	0.78
COc1cc2ccc(=O)oc2cc1O[C@@H]1O[C@H](CO)[C@@H](O)[C@H](O)[C@H]1O [SCOPOLIN]	50 (≈ 141 µM)
C=CCSSSSCC=C [DIALLYL TETRASULFIDE]	3 (≈ 14.3 µM)
COc1ccc2c(c1OC)C(=O)O[C@@H]2[C@H]1c2cc3c(cc2CCN1C)OCO3 [HYDRASTINE]	25 (≈ 65.2 µM)

molecular target: Urease subunit alpha/Urease subunit beta (Helicobacter pylori (strain ATCC 700392 / 26695) (Campylobacterpylori), UniProt P69996); test: Inhibition of Helicobacter pylori urease; type: protein-complex assay; details: not given
Sequence (P69996 whole entry): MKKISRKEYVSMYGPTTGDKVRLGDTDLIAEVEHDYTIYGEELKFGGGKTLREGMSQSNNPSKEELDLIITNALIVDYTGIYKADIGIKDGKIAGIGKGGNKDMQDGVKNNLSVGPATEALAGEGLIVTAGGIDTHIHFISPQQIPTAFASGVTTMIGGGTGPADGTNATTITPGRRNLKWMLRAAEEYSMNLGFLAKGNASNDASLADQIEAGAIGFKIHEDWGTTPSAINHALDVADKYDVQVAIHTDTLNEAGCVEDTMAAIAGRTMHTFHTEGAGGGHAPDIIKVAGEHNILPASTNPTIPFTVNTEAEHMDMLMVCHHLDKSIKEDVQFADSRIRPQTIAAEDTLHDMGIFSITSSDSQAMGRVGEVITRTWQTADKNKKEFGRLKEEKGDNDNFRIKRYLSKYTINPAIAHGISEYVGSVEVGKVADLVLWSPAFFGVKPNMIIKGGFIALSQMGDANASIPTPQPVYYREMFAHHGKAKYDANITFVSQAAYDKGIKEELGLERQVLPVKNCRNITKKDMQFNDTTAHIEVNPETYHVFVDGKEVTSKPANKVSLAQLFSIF
Sequence (P14916 whole entry, further chain): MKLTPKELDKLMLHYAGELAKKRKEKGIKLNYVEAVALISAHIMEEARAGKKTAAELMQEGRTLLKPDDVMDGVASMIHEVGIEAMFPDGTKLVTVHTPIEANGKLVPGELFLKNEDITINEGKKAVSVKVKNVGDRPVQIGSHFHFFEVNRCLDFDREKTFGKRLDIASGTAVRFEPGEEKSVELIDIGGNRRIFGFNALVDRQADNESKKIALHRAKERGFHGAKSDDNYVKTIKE

SMILES	IC50 [µM]
O=C(Cc1c[nH]c2ccccc12)N/N=C/c1ccc(O)cc1O	1.2
O=C(Cc1c[nH]c2ccccc12)N/N=C/c1ccc(O)c(O)c1	0.6
O=C(Cc1c[nH]c2ccccc12)N/N=C/c1cccc(O)c1O	0.9

test system: Rattus norvegicus; test: Protection against aspirin-induced Sprague-Dawley rat model assessed as reduction in gastric glandular lesion at 20 mg/kg, po administered for 30 mins once a day relative to control; type: functional; set-up: scale not given: the % may be the effect or the level left; details: 0.5 h

SMILES	Activity [%]
CC(CC1CCCc2ccccc21)NCC(C)c1ccccc1 (stereo unspecified)	71.3
CC(CC1OCCc2ccccc21)NCCc1ccccc1 (stereo unspecified)	71.3
CC(C)NC(C)CC1OCCc2ccccc21 (stereo unspecified)	61
CN/C(=N\CCSCc1nc[nH]c1C)NC#N [CIMETIDINE]	51.6
CC(CC1OCCc2ccccc21)NCC(C)c1ccccc1 (stereo unspecified)	71.3

test system: Mus musculus; test: Gastric ulcerogenic activity in Swiss albino mouse model assessed as inhibition of gastric inflammation at 250 mg/kg, po relative to control; type: functional; set-up: scale not given: the % may be the effect or the level left; details: not given

SMILES	Activity [%]
CCOC(=O)/C(=N/Nc1ccccc1)Sc1nnc(-c2c([C@H]3CC[C@H]4[C@@H]5CC=C6C[C@H](O)CC[C@]6(C)[C@H]5CC[C@]34C)csc2N)n1-c1ccccc1	6.7
CCOC1=C(Sc2nnc(-c3c([C@H]4CC[C@H]5[C@@H]6CC=C7C[C@H](O)CC[C@]7(C)[C@H]6CC[C@]45C)csc3N)n2-c2ccccc2)C(c2ccccc2)C(C#N)=C(N)N1 (stereo partly specified)	5.9
CC(=O)/C(=N/Nc1ccccc1)Sc1nnc(-c2c([C@H]3CC[C@H]4[C@@H]5CC=C6C[C@H](O)CC[C@]6(C)[C@H]5CC[C@]34C)csc2N)n1-c1ccccc1	6.2

test system: Helicobacter pylori; test: Antibacterial activity against Helicobacter pylori assessed as inhibition of bacterial growth by broth micro-dilution assay; type: functional; details: not given

SMILES	MIC90 [µg/mL]
Cc1c(CSc2nc3ccccc3[nH]2)cccc1SCCOC(=O)Nc1ccccc1	> 64
